Laboratory results reported in patent publication US10029994B2, “Isoxazole hydroxamic acid compounds as LpxC inhibitors” (priority 2014, dated 2018).
Like-named read-outs stand apart in the source and are kept apart here.

Tests used:
[1] = tested on: A. B. ATCC 19606; assay: MIC, broth microdilution (CLSI); type: cell-based, Acinetobacter baumannii; conditions: Acinetobacter baumannii, read-out: A. B. ATCC 19606 MIC
Experimental: (§1) Bacterial isolates were cultivated from −70° C. frozen stocks by two consecutive overnight passages at 35° C. in ambient air on 5% blood agar (Remel, Lenexa, Kans.). Quality control strain, P. aeruginosa ATCC 27853, A. baumannii ATCC19606 and E. coli ATCC 25922 are from the American Type Culture Collection (ATCC; Rockville, Md.) and PAO1 was received from Dr. K. Poole.
(§2) Minimal Inhibitory Concentrations (MICs) were determined by the broth microdilution method in accordance with Clinical and Laboratories Institute (CLSI) guidelines (CLSI M100-S25, Performance Standards for Antimicrobial Susceptibility Testing; Twenty-fifth Informational Supplement). In brief, fresh bacterial overnight cultures were resuspended in sterile saline, adjusted to a 0.5 McFarland turbidity standard and then diluted 2000-fold in cation adjusted Mueller-Hinton Broth II (MHB; Remel BBL) to yield a final inoculum of approximately 5×10^5 colony-forming units (CFU)/mL. Two-fold serial dilutions of compounds were prepared in 100% dimethyl sulfoxide (DMSO) at 100-fold the highest final assay concentration; the resulting dilution series of compounds were diluted 1:10 with sterile water. Ten μl of the drug dilution series in 10% DMSO was transferred to microtiter wells and 90 μl of bacterial suspension was inoculated into the wells. For testing the ability of compounds to potentiate the activity of known antibiotics, the assay was modified as follows; known antibiotics were added to the bacterial inoculum at 1.1-fold the final assay concentration indicated in Table A. All inoculated microdilution trays were incubated in ambient air at 35° C. for 20 hours. Following incubation, assay plates were read in a microtiter plate reader at 600 nm and visually inspected to confirm the MIC endpoint well with the OD value. The lowest concentration of the compound that prevented visible growth was recorded as the MIC. Performance of the assay was monitored by testing ciprofloxacin against the laboratory quality control strain in accordance with guidelines of the CLSI.

[2] = target: T1, P. aeruginosa LpxC (Pseudomonas aeruginosa, UniProt P47205); assay: P. aeruginosa LpxC Inhibition Assay (LC-MS/MS); type: biochemical; conditions: 1 nM P. aeruginosa LpxC, 30 min pre-incubation, 2 μM UDP-3-O-(R-3-hydroxydecanoyl)-GlcNAc, pH 7.5
T1 construct: made in house
T1 sequence (P47205 1-303): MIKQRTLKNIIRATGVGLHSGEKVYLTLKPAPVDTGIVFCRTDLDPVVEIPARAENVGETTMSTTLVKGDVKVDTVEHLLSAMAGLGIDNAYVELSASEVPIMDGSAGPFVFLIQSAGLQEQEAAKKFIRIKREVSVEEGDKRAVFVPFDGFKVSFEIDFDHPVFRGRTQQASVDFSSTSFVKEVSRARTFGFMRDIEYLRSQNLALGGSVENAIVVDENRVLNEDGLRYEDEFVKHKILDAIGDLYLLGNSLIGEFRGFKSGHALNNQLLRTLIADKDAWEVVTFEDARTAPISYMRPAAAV
From the text: P. aeruginosa LpxC Inhibition Assay
The P. aeruginosa LpxC protein is produced according to the general method of Hyland et al (Journal of Bacteriology 1997 179, 2029-2037: Cloning, expression and purification of UDP-3-O-acyl-GlcNAc deacetylase from Pseudomonas aeruginosa: a metalloamidase of the lipid A biosynthesis pathway). The LC-MS/MS method for quantitation of LpxC product was developed using an Agilent 1200 Capillary HPLC system coupled to an Applied Biosystems MDS Sciex 4000QTRAP mass spectrometer. Both instruments are controlled using the Applied Biosystems MDS Sciex Analyst software. LpxC reaction product (UDP-3-O—(R-3-hydroxyacyl)-glucosamine) was produced by hydrolysis of LpxC substrate catalyzed by P.a. LpxC and purified using reversed phase chromatography on a Phenomenex Luna C18(2) 4.6×50 mm column. An LpxC product calibration curve was generated to evaluate the sensitivity and dynamic range of the LC-MS/MS method. Briefly, compounds are pre-incubated with 1 nM P. aeruginosa LpxC for 30 min. at room temperature. Reactions are initiated by the addition of 2 μM UDP-3-O—(R-3-hydroxydecanoyl)-GlcNAc. Reactions are conducted in a 384-well plate with a total volume of 50 μL in each well containing 50 mM Sodium phosphate pH 7.5, 0.005% Trition X-100 for 20 min at room temperature. After quenching with 1.8% HOAc (5 μL of a 20% HOAc added to each well), reaction mixtures are analyzed using the LC-MS/MS method and peak areas are transformed into product concentration using a LpxC product calibration curve. Total activity (0% inhibition control) is obtained from reactions with no inhibitors and 100% inhibition control is the background using quenched samples before reaction starts. For IC50 determinations, peak areas are converted to percent inhibition in Microsoft Excel. Percent inhibition values are plotted vs. log compound concentration using XLfit. Data is fit to the four-parameter logistic equation using the non-linear regression algorithm in XLfit to return the IC50 and hill slope values.

[3] = tested on: E. C. ATCC 25922; assay: MIC, broth microdilution (CLSI); type: cell-based, Escherichia coli; conditions: Escherichia coli, ATCC25922, 20 h, read-out: E. C. ATCC 25922 MIC
Experimental: as §1, §2

[4] = tested on: P. A. PAO1 NB52019; assay: MIC, broth microdilution (CLSI); type: cell-based, Pseudomonas aeruginosa; conditions: Pseudomonas aeruginosa, read-out: P. A. PAO1 NB52019 MIC
Experimental: as §1, §2

[5] = tested on: A. B. ATCC 19606; assay: MIC in the presence of sub-inhibitory rifampicin (potentiation/synergy); type: cell-based, Acinetobacter baumannii; conditions: +2 μg/ml rifampicin (RIF); broth microdilution, 35° C., 20 hours
Experimental: as §1, §2

[6] = tested on: E. C. ATCC 29522; assay: as above; type: cell-based, Escherichia coli; conditions: +2 μg/ml rifampicin (RIF); broth microdilution, 35° C., 20 hours
Experimental: as §1, §2

[7] = ATCC19606, broth microdilution, 35° C., 20 hours
[8] = broth microdilution, 35° C., 20 hours
[9] = PAO1, broth microdilution, 35° C., 20 hours

IC50 [2] [nM]	A. B. ATCC 19606 (+2 μg/ml RIF) MIC [5] [µg/mL]	E. C. ATCC 29522 (+2 μg/ml RIF) MIC [6] [µg/mL]	MIC [1, 7] [µg/mL]	MIC [3, 8] [µg/mL]	MIC [4, 9] [µg/mL]	SMILES	MIC ([1]; ATCC19606, 20 h) [µg/mL]	MIC [3] [µg/mL]	MIC ([4]; PAO1, 20 h) [µg/mL]
< 1	≤0.06	0.5	> 64	1	1	Cc1cc([C@H](O)[C@](C)(NCc2cc(C#CC3CCC3)on2)C(=O)NO)no1 [Compound 3.2, (2S,3R)-2-(((5-(cyclobutylethynyl)isoxazol-3-yl)methyl)amino)-N,3-dihydroxy-2-methyl-3-(5-methylisoxazol-3-yl)propanamide]	–	–	–
< 1	≤0.06	0.06	64	≤ 0.06	0.25	Cc1cc([C@H](O)[C@](C)(NCc2cc(C#Cc3ccccc3)on2)C(=O)NO)no1 [Compound 3.3, (2S,3R)—N,3-dihydroxy-2-methyl-3-(5-methylisoxazol-3-yl)-2-(((5-(phenylethynyl)isoxazol-3-yl)methyl)amino)propanamide]	–	–	–
< 1	0.125	≤0.06	> 64	1	0.5	CC(NCc1cc(C#Cc2ccccc2)on1)(C(=O)NO)C(O)c1cc(CO)on1 (stereo not drawn) [Compound 3.4, N,3-dihydroxy-3-(5-(hydroxymethyl)isoxazol-3-yl)-2-methyl-2-(((5-(phenylethynyl)isoxazol-3-yl)methyl)amino)propanamide]	–	–	–
3	1	2	32	16	16	COCCCCC#Cc1cc(CN[C@](C)(C(=O)NO)[C@@H](O)c2cc(C)on2)no1 [Compound 3.5, (2S,3R)—N,3-dihydroxy-2-(((5-(6-methoxyhex-1-yn-1-yl)isoxazol-3-yl)methyl)amino)-2-methyl-3-(5-methylisoxazol-3-yl)propanamide]	–	–	–
2	0.125	0.5	64	2	4	CC(NCc1cc(C#CC2CC2)on1)(C(=O)NO)C(O)c1cc(C2CC2)on1 (stereo not drawn) [Compound 3.6, 2-(((5-(cyclopropylethynyl)isoxazol-3-yl)methyl)amino)-3-(5-cyclopropylisoxazol-3-yl)-N, 3-dihydroxy-2-methylpropanamide]	–	–	–
< 1	1	0.125	> 64	8	0.5	CC/C=C/c1cc(CC[C@](C)(C(=O)NO)S(C)(=O)=O)no1 [Compound 4.1, (R,E)-4-(5-(but-1-en-1-yl)isoxazol-3-yl)-N-hydroxy-2-methyl-2-(methylsulfonyl)butanamide]	–	–	–
< 1	0.25	0.25	> 64	2	0.25	C[C@@](CCc1cc(/C(F)=C/C2CC2)on1)(C(=O)NO)S(C)(=O)=O [Compound 4.5-1, (R,Z)-4-(5-(2-cyclopropyl-1-fluorovinyl)isoxazol-3-yl)-N-hydroxy-2-methyl-2-(methylsulfonyl)butanamide]	–	–	–
< 1	0.5	0.5	> 64	8	0.5	C[C@@](CCc1cc(/C=C(\F)C2CC2)on1)(C(=O)NO)S(C)(=O)=O [Compound 4.7, (R,Z)-4-(5-(2-cyclopropyl-2-fluorovinyl)isoxazol-3-yl)-N-hydroxy-2-methyl-2-(methylsulfonyl)butanamide]	–	–	–
< 1	1	0.5	> 64	4	0.25	C[C@@](CCc1cc(C2=CCCCC2)on1)(C(=O)NO)S(C)(=O)=O [Compound 4.8, (R)-4-(5-(cyclohex-1-en-1-yl)isoxazol-3-yl)-N-hydroxy-2-methyl-2-(methylsulfonyl)butanamide]	–	–	–

SMILES	IC50 [2] [nM]	A. B. ATCC 19606 (+2 μg/ml RIF) MIC [5] [µg/mL]	E. C. ATCC 29522 (+2 μg/ml RIF) MIC [6] [µg/mL]	MIC [1, 7] [µg/mL]	MIC [3, 8] [µg/mL]	MIC [4, 9] [µg/mL]	MIC ([1]; ATCC19606, 20 h) [µg/mL]	MIC [3] [µg/mL]	MIC ([4]; PAO1, 20 h) [µg/mL]
Cc1cc([C@H](O)[C@](C)(NCc2cc(C#CC3CC3)on2)C(=O)NO)no1 [Compound 3.1, (2S,3R)-2-(((5-(cyclopropylethynyl)isoxazol-3-yl)methyl)amino)-N,3-dihydroxy-2-methyl-3-(5-methylisoxazol-3-yl)propanamide]	< 1	≤0.06	≤0.06	–	–	–	> 64	1	0.5
C/C=C(\C)c1cc(CC[C@](C)(C(=O)NO)S(C)(=O)=O)no1 [Compound 4.3-1, (R,E)-4-(5-(but-2-en-2-yl)isoxazol-3-yl)-N-hydroxy-2-methyl-2-(methylsulfonyl)butanamide]	3	8	0.5	–	–	–	> 64	32	2
